Test results from patent publication US20060256599A1, “Database of electronically profiled cells and methods for generating and using same” (priority 2005, published 2006).

What was measured:
[1] = tested on: rat primary neonatal explants; settings: in vitro; from King et al., Genentech paper; cited from earlier work
[2] = tested on: cells in culture; assay: effect of chemotherapeutic agents on cellular conductance and cell number; type: cell-based; settings: 100 ng in each ml of media, DMEM + 10% serum, FIG. 6
Description: FIG. 6 depicts the effect of chemotherapeutic agents on cellular conductance and cell number.
Cells were seeding at a density of 1.0E+5 in 2 ml of DMEM with 10% FBS. The cells were grown and cultured for 24 hours. On day 2 eight wells were counted in a Coulter type counter after harvesting by trypsinization for initial cell count. Additional wells containing cells were examined to confirm cell viability and health by phase microscopy. The media as then aspirated and wells were filled with DMEM+10% serum (control) or DMEM+10% serum containing various concentrations of chemotherapeutic agent (e.g. Methotrexate.). The dose was 100 ng in each ml of media.

Compound	metabolic activity (heart beats) increased [1] [%]	cell number ([2]; Coulter type counter)	cell conductance [2]
prostaglandin F2alpha [PGF]	54		
CNC[C@H](O)c1cccc(O)c1 [PE, Phenylephrine]	84		
leukemia inhibitory factor [LIF]	125		
CN(Cc1cnc2nc(N)nc(N)c2n1)c1ccc(C(=O)N[C@@H](CCC(=O)O)C(=O)O)cc1 [Methotrexate]		decreased cell number	decrease in cell conductance
